Data from patent US20200063214A1, “METHODS OF IDENTIFYING PATIENTS LIKELY TO BENEFIT FROM TREATMENT WITH A TELOMERASE INHIBITOR” (Geron Corporation, priority 2018, published 2020).
Several values for one entry are separate records, joined by “and”; a condition that tells them apart may be missing. Equal values may be shown once. Entries after “also recorded” stand apart in the source; their conditions may differ.

How the values were obtained:
Type in all cases: in vivo, human
[1] = test system: intermediate-2 or high-risk myelofibrosis (MF) relapsed/refractory to JAK inhibitor; experiment: Phase 2 study: spleen response (spleen volume reduction, SVR, by MRI at week 24); conditions: for subjects with SVR >= 20% at week 24, No / subjects with SVR >= 20% at week 24, Yes / subjects with SVR >= 35% at wk 24 by IRC, No / subjects with SVR >= 35% at wk 24 by IRC, Yes / subjects with SVR >= 20% at Week 24 by IRC, No / subjects with SVR >= 20% at Week 24 by IRC, Yes / subjects with SVR >= 35% at Week 24 by IRC, Yes / subjects with SVR >= 35% at week 24 by IRC, No: 9.4 mg/kg
Source text: (§1) Diagnosis of primary, post-essential thrombocythemia, or post-polycythemia vera MF was required; other eligibility criteria included measurable splenomegaly (by magnetic resonance imaging [MRI]), active MF-related systemic symptoms and platelet count ≥75×10^9/L. Primary endpoints were: spleen response rate (% achieving ≥35% spleen volume reduction [SVR] by MRI at week 24); and symptom response rate (% achieving ≥50% reduction in total symptom score [TSS] per the Myelofibrosis Symptom Assessment Form (MFSAF) v2 at week 24). Key secondary endpoints included safety, overall survival (OS), treatment response, molecular response, and pharmacokinetic and pharmacodynamic relationships.

[2] = test system: intermediate-2 or high-risk myelofibrosis (MF) relapsed/refractory to JAK inhibitor; experiment: Phase 2 study: symptom response (total symptom score, TSS, MFSAF v2 at week 24); conditions: for subjects with TSS >= 50% decrease at week 24, No / subjects with TSS >= 50% decrease at week 24, Yes: 9.4 mg/kg
Source text: as §1

[3] = test system: intermediate-2 or high-risk myelofibrosis (MF) relapsed/refractory to JAK inhibitor; experiment: Phase 2 study: overall survival (OS); conditions: 9.4 mg/kg arm
Source text: as §1

[4] = HMR with 1 Mutation, 21 subjects
[5] = HMR with >1 Mutation, 14 subjects
[6] = all patients, first clinical cutoff

## DNA, d(3′-amino-3′-deoxy-P-thio) (T-A-G-G-G-T-T-A-G-A-C-A-A), 5′-[O-[2-hydroxy-3-(hexadecanoylamino)propyl] phosphorothioate], sodium salt (1:13) [imetelstat sodium]
[1]; 9.4 mg/kg IV every 3 weeks arm, all patients (n = 59)
  spleen response rate (>=35% SVR by MRI at week 24): 10.2%
[1]; 9.4 mg/kg arm, week 24
  rate of response (SVR or TSS), LMR or HMR with only 1 mutation compared to HMR with more than 1 mutations: higher rate of response
  rate of response (SVR or TSS), TN group compared to Non-TN group: higher rate of response
[1]; [4]
  subjects with SVR >= 20% at week 24, No: 15 (71.4%)
  subjects with SVR >= 20% at week 24, Yes: 6 (28.6%)
  subjects with SVR >= 35% at wk 24 by IRC, No: 17 (81%)
  subjects with SVR >= 35% at wk 24 by IRC, Yes: 4 (19%)
[1]; [5]
  subjects with SVR >= 20% at week 24, No: 13 (92.9%)
  subjects with SVR >= 20% at week 24, Yes: 1 (7.1%)
  subjects with SVR >= 35% at wk 24 by IRC, Yes: 0 (0%)
[1]; LMR, No Mutation, 22 subjects
  subjects with SVR >= 20% at week 24, No: 17 (77.3%)
  subjects with SVR >= 20% at week 24, Yes: 5 (22.7%)
  subjects with SVR >= 35% at wk 24 by IRC, No: 20 (90.9%)
  subjects with SVR >= 35% at wk 24 by IRC, Yes: 2 (9.1%)
[1]; Non-TN, 41 subjects
  subjects with SVR >= 20% at Week 24 by IRC, No: 34 (82.9%)
  subjects with SVR >= 20% at Week 24 by IRC, Yes: 7 (17.1%)
  subjects with SVR >= 35% at Week 24 by IRC, Yes: 3 (7.3%)
  subjects with SVR >= 35% at week 24 by IRC, No: 38 (92.7%)
[1]; TN, 16 subjects
  subjects with SVR >= 20% at Week 24 by IRC, No: 11 (68.75)) %
  subjects with SVR >= 20% at Week 24 by IRC, Yes: 5 (31.25%)
  subjects with SVR >= 35% at Week 24 by IRC, Yes: 3 (18.75%)
  subjects with SVR >= 35% at week 24 by IRC, No: 13 (81.25%)
[1]; patients with 1 HMR mutation (ASXL1, EZH2, SRSF2, or IDH1/2)
  spleen response rate, comparison by HMR mutation: higher
[2]; 9.4 mg/kg arm, all patients (n = 59)
  symptom response rate (TSS reduction >=50% at week 24): 32%
[2]; [4]
  subjects with TSS >= 50% decrease at week 24, No: 14 (66.7%)
  subjects with TSS >= 50% decrease at week 24, Yes: 7 (33.3%)
[2]; [5]
  subjects with TSS >= 50% decrease at week 24, No: 11 (78.6%)
  subjects with TSS >= 50% decrease at week 24, Yes: 3 (21.4%)
[2]; LMR, No Mutation, 22 subjects
  subjects with TSS >= 50% decrease at week 24, No: 14 (63.6%)
  subjects with TSS >= 50% decrease at week 24, Yes: 8 (36.4%)
[2]; Non-TN, 41 subjects
  subjects with TSS >= 50% decrease at week 24, No: 31 (75.6%)
  subjects with TSS >= 50% decrease at week 24, Yes: 10 (24.4%)
[2]; TN, 16 subjects
  subjects with TSS >= 50% decrease at week 24, No: 8 (50%)
  subjects with TSS >= 50% decrease at week 24, Yes: 8 (50%)
[3]; Non-TN subjects, first clinical cutoff
  Median survival, months (95% CI): 23.6 months and 23.6 (20.7, NE) months
[3]; Non-TN vs TN, first clinical cutoff
  OS HR (95% CI): 2.76 (0.81, 9.46)
[3]; Non-TN, first clinical cutoff
  Death rate %: 41.5%
[3]; TN subjects, first clinical cutoff
  Median survival, months (95% CI): has not been reached; also recorded: not estimable; also recorded: NE (23.2, NE)
[3]; TN, first clinical cutoff
  Death rate %: 18.8%
[3]; [6]
  18-month survival rate: 76.7%
  median OS: has not been reached
[3]; all patients, second clinical cutoff
  median OS: 29.9 months
[3]; first clinical cutoff
  death rate, TN group compared to Non-TN group: lower death rate
[3]; second clinical cutoff
  death rate, TN group compared to Non-TN group: lower death rate
